# Results reported in US20230017532A1 (Hoffmann-La Roche Inc., priority 2018, published 2023).
# Counter-ions that a name gives are not always drawn.
# Tested on: Acinetobacter baumannii ATCC17978
# Assay: Antimicrobial susceptibility testing: 90% growth inhibitory concentration (IC90) determination, Iso-Sensitest broth, OD 600 nm
# Type: cell-based
# Details: 90% growth inhibitory concentration, Acinetobacter baumannii ATCC17978, Iso-Sensitest broth, OD 600 nm over 16 h; read-out: ATCC 17978 IC90
# Protocol: Antimicrobial Susceptibility Testing:
# 90% Growth Inhibitory Concentration (IC90) Determination
# The in vitro antimicrobial activity of the compounds was determined according to the following procedure:
# The assay used a 10-points Iso-Sensitest broth medium to measure quantitatively the in vitro activity of the compounds against Acinetobacter baumannii ATCC17978 and Acinetobacter baumannii ATCC17961.
# Stock compounds in DMSO were serially twofold diluted (e.g. range from 50 to 0.097 μM final concentration) in 384 wells microtiter plates and inoculated with 49 μl the bacterial suspension in Iso-Sensitest medium to have a final cell concentration of ˜5×10^(5) CFU/ml in a final volume/well of 50 ul/well. Microtiter plates were incubated at 35±2° C.
# Bacterial cell growth was determined with the measurement of optical density at λ=600 nm each 20 minutes over a time course of 16 h. Growth inhibition was calculated during the logarithmic growth of the bacterial cells with determination of the concentration inhibiting 50% (IC50) and 90% (IC90) of the growth.
# Table 1 provides the 90% growth inhibitory concentrations (IC90) in micromoles per liter of the compounds of present invention obtained against the strain Acinetobacter baumannii ATCC17978 and Acinetobacter baumannii ATCC17961.
row,SMILES,IC90
1,"COc1ccc(-c2cnc3c(Nc4ccc(C(=O)NCCOCCN5CCNCC5)c(C)c4)nccn23)cc1 [Example 44, 4-[[3-(4-methoxyphenyl)imidazo[1,2-a]pyrazin-8-yl]amino]-2-methyl-N-[2-(2-piperazin-1-ylethoxy)ethyl]benzamide;dihydrochloride]",460 nM
2,"CCc1cc(Nc2nccn3c(-c4ccc(OCC#N)c(F)c4F)cnc23)ccc1C(=O)NCCOCCN [Example 53, N-(2-(2-aminoethoxy)ethyl)-4-((3-(4-(cyanomethoxy)-2,3-difluorophenyl)imidazo[1,2-a]pyrazin-8-yl)amino)-2-ethylbenzamide]",130 nM

# Same assay, conditions: Acinetobacter baumannii, ATCC17978, 16 h, 90% growth inhibitory concentration, Acinetobacter baumannii ATCC17978, Iso-Sensitest broth, OD 600 nm over 16 h; read-out: ATCC 17978 IC90
row,IC90,SMILES
1,150 nM,"COc1ccc(-c2cnc3c(Nc4ccc(C(=O)NCCOCCN5CCC(O)CC5)c(C)c4)nccn23)cc1 [Example 38, N-(2-(2-(4-hydroxypiperidin-1-yl)ethoxy)ethyl)-4-((3-(4-methoxyphenyl)imidazo[1,2-a]pyrazin-8-yl)amino)-2-methylbenzamide]"
2,260 nM,"CNCCOCCNC(=O)c1ccc(Nc2nccn3c(-c4ccc(OC)cc4)cnc23)cc1C [Example 39, 4-((3-(4-methoxyphenyl)imidazo[1,2-a]pyrazin-8-yl)amino)-2-methyl-N-(2-(2-(methylamino)ethoxy)ethyl)benzamide]"
3,210 nM,"COc1ccc(-c2cnc3c(Nc4ccc(C(=O)NCCOCCNCCO)c(C)c4)nccn23)cc1 [Example 40, N-(2-(2-((2-hydroxyethyl)amino)ethoxy)ethyl)-4-((3-(4-methoxyphenyl)imidazo[1,2-a]pyrazin-8-yl)amino)-2-methylbenzamide]"
4,450 nM,"COc1ccc(-c2cnc3c(Nc4ccc(C(=O)NCCOCCNCC(F)F)c(C)c4)nccn23)cc1 [Example 41, N-(2-(2-((2,2-difluoroethyl)amino)ethoxy)ethyl)-4-((3-(4-methoxyphenyl)imidazo[1,2-a]pyrazin-8-yl)amino)-2-methylbenzamide]"
5,250 nM,"COc1ccc(-c2cnc3c(Nc4ccc(C(=O)NCCOCCN5CC6(COC6)C5)c(C)c4)nccn23)cc1 [Example 42, N-(2-(2-(2-oxa-6-azaspiro[3.3]heptan-6-yl)ethoxy)ethyl)-4-((3-(4-methoxyphenyl)imidazo[1,2-a]pyrazin-8-yl)amino)-2-methylbenzamide]"
6,290 nM,"COc1ccc(-c2cnc3c(Nc4ccc(C(=O)NCCOCCN5CCC(F)CC5)c(C)c4)nccn23)cc1 [Example 43, N-(2-(2-(4-fluoropiperidin-1-yl)ethoxy)ethyl)-4-((3-(4-methoxyphenyl)imidazo[1,2-a]pyrazin-8-yl)amino)-2-methylbenzamide]"
7,290 nM,"CNCCOCCNC(=O)c1ccc(Nc2nccn3c(-c4ccc(OC(F)F)cc4)cnc23)cc1C [Example 45, 4-((3-(4-(difluoromethoxy)phenyl)imidazo[1,2-a]pyrazin-8-yl)amino)-2-methyl-N-(2-(2-(methylamino)ethoxy)ethyl)benzamide]"
8,530 nM,"Cc1cc(Nc2nccn3c(-c4ccc(OC(F)F)cc4)cnc23)ccc1C(=O)NCCS(=O)(=O)CCN [Example 46, N-(2-((2-Aminoethyl)sulfonyl)ethyl)-4-((3-(4-(difluoromethoxy)phenyl)imidazo[1,2-a]pyrazin-8-yl)amino)-2-methylbenzamide]"
9,920 nM,"Cc1cc(Nc2nccn3c(-c4ccc(OC(F)F)cc4)cnc23)ccc1C(=O)NCC[S+]([O-])CCN (stereo not shown) [Example 47, N-(2-((2-Aminoethyl)sulfinyl)ethyl)-4-((3-(4-(difluoromethoxy)phenyl)imidazo[1,2-a]pyrazin-8-yl)amino)-2-methylbenzamide]"
10,920 nM,"CCc1cc(Nc2nccn3c(-c4ccc(OC)c(F)c4F)cnc23)ccc1C(=O)NCCNCC(=O)O [Example 48, (2-(4-((3-(2,3-difluoro-4-methoxyphenyl)imidazo[1,2-a]pyrazin-8-yl)amino)-2-ethylbenzamido)ethyl)glycine compound with 2,2,2-trifluoroacetic acid]"
11,380 nM,"CCc1cc(Nc2nccn3c(-c4ccc(OC)c(F)c4F)cnc23)ccc1C(=O)NCCCNCC(=O)O [Example 49, (3-(4-((3-(2,3-difluoro-4-methoxyphenyl)imidazo[1,2-a]pyrazin-8-yl)amino)-2-ethylbenzamido)propyl)glycine compound trifluoroacetate]"
12,190 nM,"CCc1cc(Nc2nccn3c(-c4ccc(OC)c(F)c4F)cnc23)ccc1C(=O)NCCCCCNCC(=O)O [Example 50, (5-(4-((3-(2,3-difluoro-4-methoxyphenyl)imidazo[1,2-a]pyrazin-8-yl)amino)-2-ethylbenzamido)pentyl)glycine hydrochloride]"
13,300 nM,"CCc1cc(Nc2nccn3c(-c4ccc(OC(F)F)c(F)c4F)cnc23)ccc1C(=O)NCCOCCN(C)CC(=O)O [Example 51, N-(2-(2-(4-((3-(4-(Difluoromethoxy)-2,3-difluorophenyl)imidazo[1,2-a]pyrazin-8-yl)amino)-2-ethylbenzamido)ethoxy)ethyl)-N-methylglycine trifluoroacetate]"
14,320 nM,"CCc1cc(Nc2nccn3c(-c4ccc(OC)c(F)c4F)cnc23)ccc1C(=O)NCCOCCN(C)CC(=O)O [Example 52, N-(2-(2-(4-((3-(2,3-difluoro-4-methoxyphenyl)imidazo[1,2-a]pyrazin-8-yl)amino)-2-ethylbenzamido)ethoxy)ethyl)-N-methylglycine hydrochloride]"
15,130 nM,"COc1ccc(-c2cnc3c(Nc4cc(F)c(C(=O)NCCOCCN)c(F)c4)nccn23)c(F)c1F [Example 59, N-(2-(2-aminoethoxy)ethyl)-4-((3-(2,3-difluoro-4-methoxy-phenyl)imidazo[1,2-a]pyrazin-8-yl)amino)-2,6-difluoro-benzamide]"

# Same assay, conditions: Acinetobacter baumannii, ATCC17978, 16 h, read-out: ATCC 17978 IC90
row,SMILES,IC90
1,"COc1ccc(-c2cnc3c(Nc4ccc(C(=O)NCCOCCN)c(C)c4)nccn23)cc1Cl [Example 30, N-(2-(2-aminoethoxy)ethyl)-4-((3-(3-chloro-4-methoxyphenyl)imidazo[1,2-a]pyrazin-8-yl)amino)-2-methylbenzamide hydrochloride]",140 nM
2,"Cc1cc(Nc2nccn3c(-c4ccc(F)cc4)cnc23)ccc1C(=O)NCCOCCN [Example 31, N-(2-(2-aminoethoxy)ethyl)-4-((3-(4-fluorophenyl)imidazo[1,2-a]pyrazin-8-yl)amino)-2-methylbenzamide hydrochloride]",950 nM
3,"Cc1cc(Nc2nccn3c(-c4ccc(Cl)c(F)c4)cnc23)ccc1C(=O)NCCOCCN [Example 32, N-(2-(2-aminoethoxy)ethyl)-4-((3-(4-chloro-3-fluorophenyl)imidazo[1,2-a]pyrazin-8-yl)amino)-2-methylbenzamide hydrochloride]",300 nM
4,"Cc1cc(Nc2nccn3c(-c4ccc(F)c(F)c4)cnc23)ccc1C(=O)NCCOCCN [Example 33, N-(2-(2-aminoethoxy)ethyl)-4-((3-(3,4-difluorophenyl)imidazo[1,2-a]pyrazin-8-yl)amino)-2-methylbenzamide hydrochloride]",520 nM
5,"COc1ccc(-c2cnc3c(Nc4ccc(C(=O)NCCOCCN)c(C)c4)nccn23)c(F)c1 [Example 34, N-(2-(2-aminoethoxy)ethyl)-4-((3-(2-fluoro-4-methoxyphenyl)imidazo[1,2-a]pyrazin-8-yl)amino)-2-methylbenzamide hydrochloride]",590 nM
6,"Cc1cc(Nc2nccn3c(-c4ccc(F)cc4F)cnc23)ccc1C(=O)NCCOCCN [Example 35, N-(2-(2-aminoethoxy)ethyl)-4-((3-(2,4-difluorophenyl)imidazo[1,2-a]pyrazin-8-yl)amino)-2-methylbenzamide hydrochloride]",770 nM
7,"COc1ccc(-c2cnc3c(Nc4ccc(C(=O)NCCOCCN)c(C)c4)nccn23)cc1F [Example 36, N-(2-(2-aminoethoxy)ethyl)-4-((3-(3-fluoro-4-methoxyphenyl)imidazo[1,2-a]pyrazin-8-yl)amino)-2-methylbenzamide hydrochloride]",160 nM
8,"Cc1cc(Nc2nccn3c(-c4ccc(F)c(F)c4F)cnc23)ccc1C(=O)NCCOCCN [Example 37, N-(2-(2-aminoethoxy)ethyl)-2-methyl-4-((3-(2,3,4-trifluorophenyl)imidazo[1,2-a]pyrazin-8-yl)amino)benzamide hydrochloride]",370 nM
9,"CCc1cc(Nc2nccn3c(-c4c(F)cc(OC)cc4F)cnc23)ccc1C(=O)NCCOCCN [Example 54, N-[2-(2-aminoethoxy)ethyl]-4-[[3-(2,6-difluoro-4-methoxyphenyl)imidazo[1,2-a]pyrazin-8-yl]amino]-2-ethylbenzamide hydrochloride]",320 nM
10,"CCc1cc(Nc2nccn3c(-c4ccc(OC)cc4N)cnc23)ccc1C(=O)NCCOCCN [Example 57, 4-((3-(2-amino-4-methoxyphenyl)imidazo[1,2-a]pyrazin-8-yl)amino)-N-(2-(2-aminoethoxy)ethyl)-2-ethylbenzamide hydrochloride]",650 nM
11,"COc1ccc(-c2cnc3c(Nc4cc(C)c(C(=O)NCCOCCN)c(F)c4)nccn23)c(F)c1F [Example 58, N-(2-(2-Aminoethoxy)ethyl)-4-((3-(2,3-difluoro-4-methoxyphenyl)imidazo[1,2-a]pyrazin-8-yl)amino)-2-fluoro-6-methylbenzamide formate]",51 nM
